Results reported in patent US20110015206A1, “METHOD OF STABILIZING LIPID-RICH PLAQUE AND METHOD OF PREVENTING RUPTURE THEREOF” (KOWA CO., LTD., priority 2003, published 2011).

How the values were obtained:
Assay type in all cases: in vivo
ApoE knockout mice [1] = assay: Cross-sectional area of the plaques in aortic sinus, Victoria blue-hematoxylin and eosin staining; conditions: male ApoE knockout mice, 100 mg/kg orally twice a day for 12 weeks, mean±standard error, control group 0.23±0.03
Procedure: (§1) Home breeding male ApoE knockout mice, (C57BL/6J-ApoE<tmlUnc>, Jackson Labo™) were bred under common condition, 8 weeks old, were used for test.
(§2) The compound 1 (Example 32, WO98/54153) and control drug, CI-1011 (Example 5, WO 94/26702), were synthesized according to methods described in each publication. The compound 1 and CI-1011 were dissolved (the compound 1) or suspended (CI-1011) in aqueous solution of 0.5% methylcellulose (MC). The solution or suspension was prepared to be a dose of 100 mg/kg and a volume for administration of 0.1 mL/10 g body weight. The control group (no drug administered group) received the solvent, aqueous solution of 0.5% methylcellulose (MC). […]
(§3) After collecting the blood, animals were undergone thoracotomy and 20-G injection needle was punctured into the cardiac apex. […] Using the specimens of Victoria blue-hematoxylin and eosin staining, the internal elastic layer was specified by observation of optical microscope, and the cross-sectional area of the plaques was analyzed (Win ROOF, Mitsuya Shoji K.K.). Similarly, the area of macrophages was measured by using the specimens of macrophage immunohistochemical staining, and a ratio in total area of the plaques (the occupancy rate of macrophages) was calculated. […]

ApoE knockout mice [2] = assay: Plasma total cholesterol level in ApoE knockout mice with primary hyperlipidemia; conditions: male ApoE knockout mice, 100 mg/kg orally twice a day for 12 weeks; mean±standard error; control group 641.8±23.0
Procedure: as §1
The compound 1 (Example 32, WO98/54153) and control drug, CI-1011 (Example 5, WO 94/26702), were synthesized according to methods described in each publication. The compound 1 and CI-1011 were dissolved (the compound 1) or suspended (CI-1011) in aqueous solution of 0.5% methylcellulose (MC). The solution or suspension was prepared to be a dose of 100 mg/kg and a volume for administration of 0.1 mL/10 g body weight. The control group (no drug administered group) received the solvent, aqueous solution of 0.5% methylcellulose (MC). Prepared drug solution and suspension were administered twice a day, orally, for continuing to 12 weeks (up to 20 weeks old) (total 3 groups, each 15 animal).
After ending the final administration, mice were fasted. In the next morning, mice were laparotomized under pentobarbital sodium anesthesia to expose abdominal vein and collected blood sample 1 mL. The collected blood was centrifuged at 3000 rpm for 15 minutes to collect the plasma. Plasma total cholesterol level was assayed by using cholesterol E-test Wako (cholesterol oxidase DAOS method).
Obtained results are shown in mean±standard error. Test of significance between the control group and the drug-administered group is performed by Dunnett's test.

ApoE knockout mice [3] = assay: Azan staining of aortic sinus plaques; conditions: male ApoE knockout mice, 100 mg/kg orally twice a day for 12 weeks; compared with control group
Procedure: as §1, §2, §3

ApoE knockout mice [4] = assay: Sirius Red staining of collagen in aortic sinus plaques; conditions: male ApoE knockout mice, 100 mg/kg orally twice a day for 12 weeks; compared with control group
Procedure: as §1, §2, §3

ApoE knockout mice [5] = assay: Macrophage immunohistochemical staining (anti-CD11b antibody) of aortic sinus plaques; conditions: male ApoE knockout mice, 100 mg/kg orally twice a day for 12 weeks; compared with control group
Procedure: as §1, §2, §3

| SMILES | cross-sectional area of the plaques (ApoE knockout mice [1]) [mm^2] | plasma total cholesterol level (ApoE knockout mice [2]) [mg/dL] | Azan staining, composition of the plaques (observation) (ApoE knockout mice [3]) | Sirius Red staining, collagen fibers (observation) (ApoE knockout mice [4]) | macrophage immunohistochemical staining (observation) (ApoE knockout mice [5]) |
| --- | --- | --- | --- | --- | --- |
| CC(C)c1cc(C(C)C)c(CC(=O)NS(=O)(=O)Oc2c(C(C)C)cccc2C(C)C)c(C(C)C)c1 [CI-1011, avasimibe] | 0.09±0.01 | 360.3 ± 19.4 | the plaques consisted largely of red stained macrophage and the blue stained extracellular matrix was scanty | smaller numbers of collagen fibers were observed as compared with the control group | the macrophages were observed abundantly in whole plaques |
| CSc1cc(C)nc(SC)c1NC(=O)CN1CCN(CCSc2nc3ccccc3[nH]2)CC1 [compound 1, 2-[4-[2-(benzimidazol-2-ylthio)ethyl]piperazin-1-yl]-N-[2,4-bis(methylthio)-6-methyl-3-pyridyl]acetamide] | 0.22±0.03 | 535.0 ± 22.8 | the plaques consisted of small area of cellular components and large numbers of surrounding extracellular matrix | compactly arranged collagen fibers were observed in whole plaques | the macrophages were occasionally observed |
